Measured values from publication PMC6025042, “HSQC-TOCSY Fingerprinting-Directed Discovery of Antiplasmodial Polyketides from the Marine Ascidian-Derived Streptomyces sp. (USC-16018)” (Marine Drugs, 2018).
pIC50: −log10 of the molar value. Like-named read-outs stand apart in the source and are kept apart here.

Assays:
Plasmodium yoelii = details: cited from earlier work; for doses needed to clear the animals from the parasites: P. yoelii infected mice
P. falciparum 3D7 = experiment: antiplasmodial imaging assay, P. falciparum 3D7; assay type: cell-based, Plasmodium falciparum; details: for inhibition at 40 µM / % Inhibition at 40 µM, P. falciparum 3D7: chloroquine sensitive strain; for pIC50: read-out: IC50, P. falciparum 3D7
Experimental: (§1) The parasites were subjected to two rounds of sorbitol synchronization before undergoing compound treatment. The ring stage parasites were exposed to the experimental compounds in 384-wells imaging microplates (PerkinElmer CellCarrier, Waltham, MA, USA), as previously described in Reference. The plates were incubated for 72h at 37 °C, 90% N2, 5% CO2, 5% O2, then the parasites were stained with 2-(4-amidinophenyl)-1H–indole-6-carboxamidine (DAPI), and imaged using an Opera QEHS micro-plate confocal imaging system (PerkinElmer, Waltham, MA, USA). The images were analysed as previously described in Reference.
(§2) The raw data were normalized using the in-plate positive and negative controls to obtain the normalized % inhibition data, which was then used to calculate the IC50 values through a 4-parameter logistic curve fitting in the GraphPad Prism (Version 6.0, La Jolla, CA, USA). The experiments were carried out in two independent biological replicates, each consisting of two technical replicates.

P. falciparum Dd2 = experiment: antiplasmodial imaging assay, P. falciparum Dd2; assay type: cell-based, Plasmodium falciparum; details: for inhibition at 40 µM / % Inhibition at 40 µM, P. falciparum Dd2: chloroquine- and pyrimethamine-resistant strain; for pIC50: read-out: IC50, P. falciparum Dd2
Experimental: as §1, §2

HEK-293 Cells = experiment: cells; assay type: cell-based; details: for inhibition at 40 µM: read-out: % Inhibition at 40 µM, HEK-293 Cells; for pIC50: value in brackets
Experimental: Human Embryonic Kidney cells (HEK293) were maintained in the Dulbecco’s Modified Eagle Medium (DMEM) medium supplemented with 10% FBS. The HEK293 cells were exposed to the compounds in TC-treated 384-wells plates (Falcon, Durham, NC, USA). […] After an additional 5–6 h incubation at standard conditions, the total fluorescence (excitation/emission: 530 nm/595 nm) was measured using the Envision plate reader (PerkinElmer, Waltham, MA, USA).
as §2

[1] = tested on: chloroquine-sensitive and chloroquine-resistant Plasmodium falciparum strains; parameters: method as in PMID 14514358; details: chloroquine-sensitive and chloroquine-resistant strains equally; read-out: IC50, growth of P. falciparum; cited from earlier work
[2] = parameters: method as in PMID 21454186; details: cited from earlier work
K1 strain = tested on: K1 strain; parameters: method as in PMID 27554496; details: read-out: IC50 against the K1 strain; cited from earlier work
[3] = Plasmodium falciparum, 3D7, 40 µM, 72 h, read-out: % Inhibition at 40 µM, P. falciparum 3D7
[4] = Plasmodium falciparum, 3D7, 72 h, value in brackets
[5] = Plasmodium falciparum, DD2, 40 µM, 72 h, read-out: % Inhibition at 40 µM, P. falciparum Dd2
[6] = Plasmodium falciparum, DD2, 72 h, value in brackets
[7] = Homo sapiens, HEK293, 40 µM, 72 h
[8] = Plasmodium falciparum, 3D7, 72 h, read-out: % Inhibition at 40 µM, P. falciparum 3D7, 40 µM, 72 h
[9] = Plasmodium falciparum, DD2, 72 h, read-out: % Inhibition at 40 µM, P. falciparum Dd2, 40 µM, 72 h
[10] = 40 µM, 72 h, listed as Herbimycin G (1)
[11] = 40 µM, 72 h, listed as Elaiophylin (2)
[12] = 72 h, value in brackets, listed as Elaiophylin (2)

C=CCNC1=C2C[C@@H](C)C[C@H](OC)[C@H](O)[C@@H](C)/C=C(\C)[C@H](OC(N)=O)[C@@H](OC)/C=C\C=C(/C)C(=O)NC(=CC1=O)C2=O [17-AAG, 17-N-allylamino-17-demethoxygeldanamycin]
doses needed to clear the animals from the parasites (Plasmodium yoelii): a second dose of 17-AAG was needed | efficacy against Plasmodium yoelii in mouse models (Plasmodium yoelii; intra-peritoneal, doses of 7.2 mg/kg): effective against Plasmodium yoelii in mouse models | time to complete clearance of parasitemia after reinfection (Plasmodium yoelii; treated mice reinfected with P. yoelii): 9 days

C[C@H]1[C@H](OC(=O)CCC(=O)O)O[C@@H]2O[C@@]3(C)CC[C@H]4[C@H](C)CC[C@@H]1[C@@]24OO3 [Artesunate]
inhibition at 40 µM (P. falciparum 3D7; [3]): 99.6% | pIC50 (P. falciparum 3D7; [4]): 9.05 | inhibition at 40 µM (P. falciparum Dd2; [5]): 98.4% | pIC50 (P. falciparum Dd2; [6]): 8.89 | inhibition at 40 µM (HEK-293 Cells; [7]): 50.6%

CCN(CC)CCCC(C)Nc1ccnc2cc(Cl)ccc12 (stereo not shown) [Chloroquine]
inhibition at 40 µM (P. falciparum 3D7; [8]): 98.8% | pIC50 (P. falciparum 3D7; Plasmodium falciparum, 3D7, 72 h): 8.00 | inhibition at 40 µM (P. falciparum Dd2; [9]): 96.5% | pIC50 (P. falciparum Dd2; Plasmodium falciparum, DD2, 72 h): 7.06 | inhibition at 40 µM (HEK-293 Cells; Homo sapiens, HEK293, 72 h): 40.9% | doses needed to clear the animals from the parasites (Plasmodium yoelii): a single dose of chloroquine was sufficient to fully clear the animals from the parasites

C[C@H]1[C@@H](O)O[C@@H]2O[C@@]3(C)CC[C@H]4[C@H](C)CC[C@@H]1[C@@]24OO3 [Dihydroartemisinin]
inhibition at 40 µM (P. falciparum 3D7; [3]): 99.9% | pIC50 (P. falciparum 3D7; [4]): 9.40 | inhibition at 40 µM (P. falciparum Dd2; [5]): 98% | pIC50 (P. falciparum Dd2; [6]): 9.22 | inhibition at 40 µM (HEK-293 Cells; [7]): 37.9%

COC1=C2C[C@@H](C)C[C@H](OC)[C@H](O)[C@@H](C)/C=C(\C)[C@H](OC(N)=O)[C@@H](OC)/C=C\C=C(/C)C(=O)NC(=CC1=O)C2=O [Geld, geldanamycin]
pIC50 [1]: 7.70 | water solubility (in words) [2]: low water solubility

COc1ccc(C[C@H](N)C(=O)N[C@H]2[C@@H](O)[C@H](n3cnc4c(N(C)C)ncnc43)O[C@@H]2CO)cc1 [Puromycin]
inhibition at 40 µM (P. falciparum 3D7; [3]): 99% | pIC50 (P. falciparum 3D7; [4]): 6.83 | inhibition at 40 µM (P. falciparum Dd2; [5]): 99.1% | pIC50 (P. falciparum Dd2; [6]): 6.94 | inhibition at 40 µM (HEK-293 Cells; [7]): 103% | pIC50 (HEK-293 Cells; Homo sapiens, HEK293, 72 h): 5.85

CCc1nc(N)nc(N)c1-c1ccc(Cl)cc1 [Pyrimethamine]
inhibition at 40 µM (P. falciparum 3D7; [3]): 98.7% | pIC50 (P. falciparum 3D7; [4]): 8.33 | inhibition at 40 µM (P. falciparum Dd2; [5]): 23.2% | inhibition at 40 µM (HEK-293 Cells; [7]): 68.4%

COc1ccc2nc3cc(Cl)ccc3c(Nc3cc(CN4CCCC4)c(O)c(CN4CCCC4)c3)c2n1 [Pyronaridine]
inhibition at 40 µM (P. falciparum 3D7; [3]): 99.9% | pIC50 (P. falciparum 3D7; [4]): 8.13 | inhibition at 40 µM (P. falciparum Dd2; [5]): 97.8% | pIC50 (P. falciparum Dd2; [6]): 8.08 | inhibition at 40 µM (HEK-293 Cells; [7]): 98.7% | pIC50 (HEK-293 Cells; Homo sapiens, HEK293, 72 h): 5.55

CO[C@H]1[C@@H](OC)C[C@H](C)[C@@H](OC)C2=C[C@@H](O)C[C@@H](NC(=O)/C(C)=C/C=C\[C@H](OC)[C@@H](OC(N)=O)/C(C)=C/[C@@H]1C)C2=O [compound 1, herbimycin G]
% Inhibition at 40 µM, P. falciparum 3D7 (P. falciparum 3D7; 40 µM, 72 h): > 75% | % Inhibition at 40 µM, P. falciparum 3D7 (P. falciparum 3D7; [10]): 77.2% | antiplasmodial activity (in words) (P. falciparum 3D7; 3D7 and Dd2 strains): weak antiplasmodial activity | inhibition at 40 µM (P. falciparum 3D7; [8]): 77% | % Inhibition at 40 µM, P. falciparum Dd2 (P. falciparum Dd2; [10]): 81.7% | inhibition at 40 µM (P. falciparum Dd2; [9]): > 75% | % Inhibition at 40 µM, HEK-293 Cells (HEK-293 Cells; 40 µM, 72 h): no effect | cytotoxicity (in words) (HEK-293 Cells; HEK293): no cytotoxicity

CC(C)C[C@@H]1NC(=O)[C@@H]2CCCN2C1=O [compound 3, Cyclo-L-Pro-L-Leu]
inhibition at 40 µM (P. falciparum 3D7; [3]): 45.9% | inhibition at 40 µM (P. falciparum Dd2; [5]): 39% | % Inhibition at 40 µM, HEK-293 Cells (HEK-293 Cells; 40 µM, 72 h): no effect

O=C1N[C@@H](Cc2ccccc2)C(=O)N2CCC[C@@H]12 [compound 4, Cyclo-L-Pro-L-Phe]
% Inhibition at 40 µM, P. falciparum 3D7 (P. falciparum 3D7; 40 µM, 72 h): no effect | % Inhibition at 40 µM, P. falciparum Dd2 (P. falciparum Dd2; 40 µM, 72 h): no effect | % Inhibition at 40 µM, HEK-293 Cells (HEK-293 Cells; 40 µM, 72 h): no effect

CC(C)[C@@H]1NC(=O)[C@@H]2CCCN2C1=O [compound 5, Cyclo-L-Pro-L-Val]
% Inhibition at 40 µM, P. falciparum 3D7 (P. falciparum 3D7; 40 µM, 72 h): no effect | % Inhibition at 40 µM, P. falciparum Dd2 (P. falciparum Dd2; 40 µM, 72 h): no effect | % Inhibition at 40 µM, HEK-293 Cells (HEK-293 Cells; 40 µM, 72 h): no effect

O=C1N[C@@H](Cc2ccc(O)cc2)C(=O)N2CCC[C@@H]12 [compound 6, Cyclo-L-Pro-L-Tyr]
% Inhibition at 40 µM, P. falciparum 3D7 (P. falciparum 3D7; 40 µM, 72 h): no effect | % Inhibition at 40 µM, P. falciparum Dd2 (P. falciparum Dd2; 40 µM, 72 h): no effect | % Inhibition at 40 µM, HEK-293 Cells (HEK-293 Cells; 40 µM, 72 h): no effect

elaiophylin [compound 2]
% Inhibition at 40 µM, P. falciparum 3D7 (P. falciparum 3D7; 40 µM, 72 h): > 75% | % Inhibition at 40 µM, P. falciparum 3D7 (P. falciparum 3D7; [11]): 96.6% | pIC50 (P. falciparum 3D7; [12]): 6.11 | % Inhibition at 40 µM, P. falciparum Dd2 (P. falciparum Dd2; 40 µM, 72 h): > 75% | % Inhibition at 40 µM, P. falciparum Dd2 (P. falciparum Dd2; [11]): 86.1% | pIC50 (P. falciparum Dd2; [12]): 6.22 | % Inhibition at 40 µM, HEK-293 Cells (HEK-293 Cells; 40 µM, 72 h): 101.9% | pIC50 (HEK-293 Cells; 72 h): 5.84 | cytotoxicity (in words) (HEK-293 Cells; HEK293): highly cytotoxic | pIC50 (K1 strain): 6.67
